pEC50: −log10 of the molar value. “Also recorded” adds a separate entry of the source. Like-named read-outs stand apart in the source and are kept apart here.

These results are taken from US6558671B1, “Cysteine-depleted peptides recognized by A3-restricted cytotoxic lymphocytes, and uses therefor” (The University of Virginia Patent Foundation, priority 1997, dated 2003).

Test [1] concerns HLA-A1-restricted VMM15 CTL. Description: 4-hour chromium release assay, peptide-pulsed C1R-A1 targets with VMM15 CTL. The test is classed as cell-based, human. The conditions noted are these: for reconstitution of an epitope for VMM15 CTL / recognition by VMM15 CTL: C1R-A1 cells pulsed with synthetic peptide at 0.1 to 10 uM, FIG. 3; for recognition of peptide-pulsed C1R-A1 cells in dose-titration assay: HPLC-purified peptides, FIG. 7; for recognition by VMM15 CTL in peptide screening: screen of tyrosinase peptides matching the HLA-A1 motif, one experiment with 48 peptides; for CTL recognition compared with the wild-type peptide: alanine or serine substituted peptides, FIG. 8.

Another test concerns VMM15 CTL. Description: Cold target inhibition assay with VMM15 CTL. The test is classed as cell-based, human. The conditions noted are these: for inhibition of lysis of labeled peptide-pulsed targets by unlabeled targets pulsed with the peptide: VMM15 EBV targets pulsed at 20 μg/ml, effector-to-labeled target ratio 10:1, FIG. 9. Here is the method: FIG. 9. […] (SEQ ID NO:73) for recognition by VMM15 CTL. […] (SEQ ID NO:79), or no peptide, as indicated. Increasing numbers of these various unlabeled targets were pre-incubated with VMM15 CTL for 1 hour at 37° C. Labeled (hot) targets were then added for an additional 4 hour co-culture at a final effector-to-labeled target ratio of 10:1.
(SEQ ID NO:19), and because of the similar dose-titration curves observed for CTL recognition (FIG. […] (SEQ ID NO:19)) of both peptides adopt a similar conformation when bound to HLA-A1. A cold target inhibition assay was performed with peptide-pulsed target cells to test that hypothesis.

The next test deals with VMM12 CTL. Briefly: 4-hour chromium release assay, peptide-pulsed C1R-A1 targets with VMM12 CTL. It is filed as cell-based, human. The conditions noted are these: C1R-A1 cells pulsed with peptide at 1 to 0.01 μM; FIG. 4.
The next test has as its system H-Y specific CTL. The conditions noted are these: cited from earlier work.
[2] abbreviates: C1R-A1 targets, E:T 25:1, FIG. 8A, read-out: half-maximal lysis, nonamer.

Turning to EKCDICTDEY, in test [1], the “reconstitution of an epitope for VMM15 CTL / recognition by VMM15 CTL” value is “recognized; also recorded: reconstituted” and the “recognition by VMM15 CTL in peptide screening” value is listed as “recognized”. Besides, the “recognition of peptide-pulsed C1R-A1 cells in dose-titration assay” value in test [1] (E:T 25:1) is on record as “equally reactive”.
Consider “DAEKCDIATDEY [dodecamer with alanine substituted for the cysteine at position 8]”, for which the “CTL recognition compared with the wild-type peptide” value in test [1] was “prevented recognition at every concentration tested”.
Consider “DAEKADICTDEY [dodecamer with alanine replacing the cysteine at position 5]”, for which, in test [1] (C1R-A1 targets, E:T 10:1, FIG. 8B, read-out: half-maximal lysis, dodecamer), the pEC50 was approximately 7.00. Moreover, in test [1], the “CTL recognition compared with the wild-type peptide” value is reported as “significantly greater recognition”.
Regarding “KCDIATDEY [nonamer with alanine substituted for the cysteine distal to the N-terminus]”, in test [1], the “CTL recognition compared with the wild-type peptide” value is “not discernibly more effective than the wild-type peptide”.
For “KSDICTDEY [nonamer with serine replacing the cysteine at position 2]”, the pEC50 in test [1] (setting [2]) is 8.70. The “CTL recognition compared with the wild-type peptide” value in test [1] is reported as “significantly greater recognition”. Further, in the test on VMM15 CTL, the “inhibition of lysis of labeled peptide-pulsed targets by unlabeled targets pulsed with the peptide” value was “similarly inhibited”.
DAEKCDICTDEY: in test [1], the “reconstitution of an epitope for VMM15 CTL / recognition by VMM15 CTL” value is on record as “recognized; also recorded: reconstituted” and the “recognition by VMM15 CTL in peptide screening” value is on record as “recognized”. In addition, in test [1] (C1R-A1 targets, E:T 10:1, FIG. 8B, read-out: half-maximal sensitization of target cells for lysis, dodecamer), the pEC50 is 5.00. For the same sequence, the “reconstitution of an epitope for VMM12 CTL” value in the test with VMM12 CTL is recorded as “reconstituted an epitope for these VMM12 CTL, although weakly”. For the same sequence, in the test with VMM15 CTL (targets pulsed with peptide at 50 μg/ml), the “inhibition of lysis of peptide-pulsed targets by cold wild-type VMM15 tumor cells” value was “can be inhibited”.
With KCDICTDEY, in test [1], the “reconstitution of an epitope for VMM15 CTL / recognition by VMM15 CTL” value is given as “reconstitutes an epitope for VMM15 CTL; also recorded: most effective; also recorded: reconstituted” and the “recognition by VMM15 CTL in peptide screening” value is recorded as “recognized”. Also, in test [1] (Example A1-1), the half-maximal lysis result is “approximately 1 ug/ml”. In addition, the pEC50 in test [1] (Example A1-1, read-out: half-maximal lysis) was approximately 6.00. Also, the “recognition of peptide-pulsed C1R-A1 cells in dose-titration assay” value in test [1] (E:T 25:1) is on record as “equally reactive”.
For the sequence “KADICTDEY [nonamer with alanine replacing the cysteine at position 2]”, the pEC50 in test [1] (setting [2]) is 7.70. Also, the “CTL recognition compared with the wild-type peptide” value in test [1] is given as “significantly greater recognition”.
FIDSYICQV: the “effect of cysteinylation of the cysteine on recognition” value with H-Y specific CTL is “improving recognition by one clone, and reducing recognition by another”.
With “DAEKSDICTDEY [dodecamer with serine replacing the more N-terminal cysteine]”, the “inhibition of lysis of labeled peptide-pulsed targets by unlabeled targets pulsed with the peptide” value in the test on VMM15 CTL is reported as “competes”.
Turning to “KCDISTDEY [nonamer with serine substituted for the cysteine distal to the N-terminus]”, in test [1], the “CTL recognition compared with the wild-type peptide” value is listed as “not discernibly more effective than the wild-type peptide”.
